Assay results published in ChEMBL document CHEMBL3745645, “Synthesis, in vitro antitumor activity, dihydrofolate reductase inhibition, DNA intercalation and structure-activity relationship studies of 1,3,5-triazine analogues” (Bioorg Med Chem Lett, 2016).
Active and inactive are the calls of the source. The calls are words filed in the database; no cut-off is given here.

Assays:
Format in all cases: functional
[1] = system: NCI-H522; assay: Cytotoxicity against human NCI-H522 cells at 10 uM after 48 hrs by SRB assay; settings: NCI-H522, 48 h, read-out: GI
[2] = Cytotoxicity against human OVCAR3 cells at 10 uM after 48 hrs by SRB assay; settings: OVCAR-3, 48 h, read-out: GI
[3] = system: T47D; assay: Cytotoxicity against human T47D cells at 10 uM after 48 hrs by SRB assay; settings: read-out: GI
[4] = system: A498; assay: Cytotoxicity against human A498 cells at 10 uM after 48 hrs by SRB assay; settings: A498, 48 h, read-out: GI
[5] = Cytotoxicity against human UO31 cells at 10 uM after 48 hrs by SRB assay; settings: UO-31, 48 h, read-out: GI
[6] = system: MCF7; assay: Cytotoxicity against human MCF7 cells at 10 uM after 48 hrs by SRB assay; settings: MCF7, 48 h, read-out: GI
[7] = Cytotoxicity against human SF295 cells at 10 uM after 48 hrs by SRB assay; settings: SF-295, 48 h, read-out: GI
[8] = Cytotoxicity against human HOP62 cells at 10 uM after 48 hrs by SRB assay; settings: HOP-62, 48 h, read-out: GI
[9] = Cytotoxicity against human SKOV3 cells at 10 uM after 48 hrs by SRB assay; settings: SK-OV-3, 48 h, read-out: GI
[10] = system: SR; assay: Cytotoxicity against human SR cells at 10 uM after 48 hrs by SRB assay; settings: read-out: GI
[11] = system: NCI-H322M; assay: Cytotoxicity against human NCI-H322M cells at 10 uM after 48 hrs by SRB assay; settings: read-out: GI
[12] = system: CAKI-1; assay: Cytotoxicity against human Caki1 cells at 10 uM after 48 hrs by SRB assay
[13] = system: ACHN; assay: Cytotoxicity against human ACHN cells at 10 uM after 48 hrs by SRB assay; settings: read-out: GI
[14] = Cytotoxicity against human LOXIMVI cells at 10 uM after 48 hrs by SRB assay; settings: LOX IMVI, read-out: GI
[15] = system: BT-549; assay: Cytotoxicity against human BT549 cells at 10 uM after 48 hrs by SRB assay
[16] = Cytotoxicity against human SNB75 cells at 10 uM after 48 hrs by SRB assay; settings: SNB-75, 48 h, read-out: GI
[17] = system: SK-MEL-5; assay: Cytotoxicity against human SK-MEL-5 cells at 10 uM after 48 hrs by SRB assay; settings: SK-MEL-5, 48 h, read-out: GI
[18] = system: SK-MEL-28; assay: Cytotoxicity against human SK-MEL-28 cells at 10 uM after 48 hrs by SRB assay
[19] = system: A549; assay: Cytotoxicity against human A549 cells at 10 uM after 48 hrs by SRB assay; settings: A549, 48 h, read-out: GI
[20] = Cytotoxicity against human SF268 cells at 10 uM after 48 hrs by SRB assay; settings: SF-268, 48 h, read-out: GI
[21] = Cytotoxicity against human HCT116 cells at 10 uM after 48 hrs by SRB assay; settings: HCT-116, 48 h, read-out: GI
[22] = system: KM12; assay: Cytotoxicity against human KM12 cells at 10 uM after 48 hrs by SRB assay; settings: KM12, 48 h, read-out: GI
[23] = Cytotoxicity against human HCT15 cells at 10 uM after 48 hrs by SRB assay; settings: HCT-15, 48 h, read-out: GI
[24] = Cytotoxicity against human MOLT4 cells at 10 uM after 48 hrs by SRB assay; settings: MOLT-4, 48 h, read-out: GI
[25] = system: RXF 393; assay: Cytotoxicity against human RXF393 cells at 10 uM after 48 hrs by SRB assay
[26] = system: MDA-MB-231; assay: Cytotoxicity against human MDA-MB-231 cells at 10 uM after 48 hrs by SRB assay; settings: MDA-MB-231, 48 h, read-out: GI
[27] = system: SN12C; assay: Cytotoxicity against human SN12C cells at 10 uM after 48 hrs by SRB assay; settings: read-out: GI
[28] = system: HCC 2998; assay: Cytotoxicity against human HCC2998 cells at 10 uM after 48 hrs by SRB assay
[29] = system: MDA-MB-435; assay: Cytotoxicity against human MDA-MB-435 cells at 10 uM after 48 hrs by SRB assay; settings: MDA-MB-435, 48 h, read-out: GI
[30] = Cytotoxicity against human COLO205 cells at 10 uM after 48 hrs by SRB assay; settings: COLO 205, 48 h, read-out: GI
[31] = system: OVCAR-5; assay: Cytotoxicity against human OVCAR5 cells at 10 uM after 48 hrs by SRB assay
[32] = system: NCI-H460; assay: Cytotoxicity against human NCI-H460 cells at 10 uM after 48 hrs by SRB assay; settings: NCI-H460, 48 h, read-out: GI
[33] = system: 786-0; assay: Cytotoxicity against human 786-0 cells at 10 uM after 48 hrs by SRB assay
[34] = Cytotoxicity against human HL-60(TB) cells at 10 uM after 48 hrs by SRB assay; settings: HL-60, 48 h, read-out: GI
[35] = Cytotoxicity against human Hs 578T cells at 10 uM after 48 hrs by SRB assay; settings: read-out: GI
[36] = system: SW-620; assay: Cytotoxicity against human SW620 cells at 10 uM after 48 hrs by SRB assay
[37] = Cytotoxicity against human OVCAR8 cells at 10 uM after 48 hrs by SRB assay; settings: OVCAR-8, 48 h, read-out: GI
[38] = system: MDA-MB-468; assay: Cytotoxicity against human MDA-MB-468 cells at 10 uM after 48 hrs by SRB assay
[39] = system: K562; assay: Cytotoxicity against human K562 cells at 10 uM after 48 hrs by SRB assay; settings: K562, 48 h, read-out: GI
[40] = system: HT-29; assay: Cytotoxicity against human HT-29 cells at 10 uM after 48 hrs by SRB assay; settings: HT-29, 48 h, read-out: GI
[41] = system: M14; assay: Cytotoxicity against human M14 cells at 10 uM after 48 hrs by SRB assay; settings: M14, 48 h, read-out: GI
[42] = system: Malme-3M; assay: Cytotoxicity against human MALME-3M cells at 10 uM after 48 hrs by SRB assay; settings: read-out: GI
[43] = Cytotoxicity against human OVCAR4 cells at 10 uM after 48 hrs by SRB assay; settings: OVCAR-4, 48 h, read-out: GI
[44] = system: CCRF-CEM; assay: Cytotoxicity against human CCRF-CEM cells at 10 uM after 48 hrs by SRB assay; settings: read-out: GI
[45] = Cytotoxicity against human DU145 cells at 10 uM after 48 hrs by SRB assay; settings: DU-145, 48 h, read-out: GI
[46] = system: U-251; assay: Cytotoxicity against human U251 cells at 10 uM after 48 hrs by SRB assay; settings: U-251, 48 h, read-out: GI
[47] = system: NCI-H226; assay: Cytotoxicity against human NCI-H226 cells at 10 uM after 48 hrs by SRB assay; settings: NCI-H226, 48 h, read-out: GI
[48] = Cytotoxicity against human NCI-ADR-RES cells at 10 uM after 48 hrs by SRB assay; settings: read-out: GI
[49] = Cytotoxicity against human SNB19 cells at 10 uM after 48 hrs by SRB assay; settings: SNB-19, 48 h, read-out: GI
[50] = system: TK-10; assay: Cytotoxicity against human TK10 cells at 10 uM after 48 hrs by SRB assay
[51] = Cytotoxicity against human IGROV1 cells at 10 uM after 48 hrs by SRB assay; settings: IGROV-1, 48 h, read-out: GI
[52] = Cytotoxicity against human HOP92 cells at 10 uM after 48 hrs by SRB assay; settings: HOP-92, 48 h, read-out: GI
[53] = system: SF-539; assay: Cytotoxicity against human SF539 cells at 10 uM after 48 hrs by SRB assay
[54] = system: UACC-257; assay: Cytotoxicity against human UACC257 cells at 10 uM after 48 hrs by SRB assay
[55] = Cytotoxicity against human RPMI8226 cells at 10 uM after 48 hrs by SRB assay; settings: RPMI-8226, 48 h, read-out: GI
[56] = system: SK-MEL-2; assay: Cytotoxicity against human SK-MEL-2 cells at 10 uM after 48 hrs by SRB assay

Q: With `Cc1nc2cc(Nc3nc(Nc4ccc(F)cc4)nc(Nc4ncccn4)n3)ccc2n1Cc1ccccc1` as the compound, how does the inhibition of growth at 10 µM [1] read?
A: 22.5%

Q: What about the inhibition of growth at 10 µM [2] of the same compound?
A: 9.64%

Q: What about the inhibition of growth at 10 µM [3] of the same compound?
A: 25.1%

Q: And the inhibition of growth at 10 µM [4]?
A: 11.5%

Q: And the inhibition of growth at 10 µM [5]?
A: 27%

Q: And the inhibition of growth at 10 µM [6]?
A: 20.1%

Q: And the inhibition of growth at 10 µM [7]?
A: 15.6%

Q: What about the inhibition of growth at 10 µM [8] of the same compound?
A: 2.38%

Q: What about the inhibition of growth at 10 µM [9] of the same compound?
A: 2.64%

Q: What about the inhibition of growth at 10 µM [10] of the same compound?
A: 51.6%

Q: What about the inhibition of growth at 10 µM [11] of the same compound?
A: 5.47%

Q: What about the “growth inhibition (GI)” value [12] of the same compound?
A: inactive

Q: What about the inhibition of growth at 10 µM [13] of the same compound?
A: 1.6%

Q: And the inhibition of growth at 10 µM [14]?
A: 3.01%

Q: What about the “growth inhibition (GI)” value [15] of the same compound?
A: inactive

Q: And the inhibition of growth at 10 µM [16]?
A: 15.6%

Q: What about the inhibition of growth at 10 µM [17] of the same compound?
A: 6.35%

Q: What about the “growth inhibition (GI)” value [18] of the same compound?
A: inactive

Q: And the inhibition of growth at 10 µM [19]?
A: 17.8%

Q: And the inhibition of growth at 10 µM [20]?
A: 11.2%

Q: And the inhibition of growth at 10 µM [21]?
A: 15.8%

Q: And the inhibition of growth at 10 µM [22]?
A: 11.6%

Q: And the inhibition of growth at 10 µM [23]?
A: 12.7%

Q: And the inhibition of growth at 10 µM [24]?
A: 44.6%

Q: What about the “growth inhibition (GI)” value [25] of the same compound?
A: inactive

Q: What about the inhibition of growth at 10 µM [26] of the same compound?
A: 7.37%

Q: And the inhibition of growth at 10 µM [27]?
A: 8.42%

Q: And the “growth inhibition (GI)” value [28]?
A: inactive

Q: And the inhibition of growth at 10 µM [29]?
A: 9.24%

Q: And the inhibition of growth at 10 µM [30]?
A: 10.5%

Q: What about the “growth inhibition (GI)” value [31] of the same compound?
A: inactive

Q: What about the inhibition of growth at 10 µM [32] of the same compound?
A: 5.2%

Q: What about the “growth inhibition (GI)” value [33] of the same compound?
A: inactive

Q: And the inhibition of growth at 10 µM [34]?
A: 30.1%

Q: And the inhibition of growth at 10 µM [35]?
A: 20.9%

Q: And the “growth inhibition (GI)” value [36]?
A: inactive

Q: What about the inhibition of growth at 10 µM [37] of the same compound?
A: 8.83%

Q: And the “growth inhibition (GI)” value [38]?
A: inactive

Q: And the inhibition of growth at 10 µM [39]?
A: 41.3%

Q: And the inhibition of growth at 10 µM [40]?
A: 14.8%

Q: And the inhibition of growth at 10 µM [41]?
A: 5.65%

Q: And the inhibition of growth at 10 µM [42]?
A: 7.94%

Q: And the inhibition of growth at 10 µM [43]?
A: 20.2%

Q: What about the inhibition of growth at 10 µM [44] of the same compound?
A: 63.2%

Q: And the inhibition of growth at 10 µM [45]?
A: 4.12%

Q: What about the inhibition of growth at 10 µM [46] of the same compound?
A: 13.2%

Q: And the inhibition of growth at 10 µM [47]?
A: 11.5%

Q: And the inhibition of growth at 10 µM [48]?
A: 10.5%

Q: And the inhibition of growth at 10 µM [49]?
A: 7.38%

Q: And the “growth inhibition (GI)” value [50]?
A: inactive

Q: And the inhibition of growth at 10 µM [51]?
A: 24%

Q: And the inhibition of growth at 10 µM [52]?
A: 18.4%

Q: What about the “growth inhibition (GI)” value [53] of the same compound?
A: inactive

Q: And the “growth inhibition (GI)” value [54]?
A: inactive

Q: And the inhibition of growth at 10 µM [55]?
A: 57.4%

Q: What about the “growth inhibition (GI)” value [56] of the same compound?
A: inactive
